In patent US5104859A, “Continuous administration of adenosine to reduce pulmonary vascular resistance” (priority 1990, dated 1992):
Entries after “also recorded” stand apart in the source; their conditions may differ. Like-named read-outs stand apart in the source and are kept apart here.

Tests used:
[1] = Purine levels in arterial plasma before, during and after adenosine-induced controlled hypotension (HPLC); details: for concentration: Table I, mean ± SEM
Procedure: (§1) Blood gases were measured with appropriate electrodes for pH, PCO2, and PO2 (Radiometer, Copenhagen). The hemoglobin concentration was determined spectrophotometrically. Samples for the determination of adenosine and its metabolites were collected as described by Sollevi et al., Acta Physiol. Scand., 120: 171-76 (1984). Adenosine and inosine were purified and analyzed by HPLC as described by Fredholm and Sollevi., J. Physiol. (London), 313: 351-67 (1981). Hypoxanthine, xanthine, and uric acid were analyzed by HPLC according to the method of Schweinsberg and Loo., J. Chromatogr., 181: 103-7 (1980). Arterial levels of dipyridamole were determined by HPLC. J. Chromatogr., 162: 98-103 (1979). Blood lactate was measured according to Tfelt-Hansen and Siggard-Andersen. Scand. Clin. Lab. Invest., 27:15-19 (1971).
(§2) Measurements and blood samplings were performed immediately before hypotension, as late as possible during hypotension (1-5 min before terminating the infusion) and approximately 30 min after the hypotensive period.
(§3) Dipyridamole (5 mg. per ml) was infused iv (0.3-0.4 mg. per kg. over a period of 5-10 min) approximately 20 minutes prior to the induction of controlled hypotension. […] (See Pedersen, J. Chromatogr., 162: 98-103 (1979).
(§4) The infusion was started at a rate of 0.01 mg. per kg. per minute, which was doubled at 15 second intervals until the desired MABP level of 40-50 mmHg was reached. […] Serum creatinine was determined before and on two consecutive days after operation. The standard ECG was recorded the day before and the day after operation.
(§5) The statistical significance (control 1 vs. adenosine and control 1 vs. control 2) was determined by Student's t test for paired data. A P value of <0.05 was regarded as significant.
The purine levels of nine of the patients were determined prior to, during and after adenosine-induced controlled hypotension.

[2] = Plasma adenosine and metabolite concentrations during cardiopulmonary bypass (HPLC); details: for concentration: read-out: Venous concentration, 20 min
Procedure: In six cases the plasma adenosine levels were determined by high performance liquid chromatography (HPLC) (Fredholm and Sollevi, J. Physiol. (London), 313: 351-67 (1981) in arterial and in venous (venous lines to the oxygenator) blood. The adenosine metabolites inosine, hypoxanthine and uric acid were also determined by HPLC. The samples were collected as previously described (Sollevi, Acta. Physiol. Scand., 121: 165-72 (1984) at the intervals of 10, 20, 40 and 80 minutes during CPB and 20 minutes after CPB.
Statistical significance (controls v. adenosine group) was determinted with Student's t-test for unpaired data. For significance within the groups the Wilcoxon Rank Sum test was used. p […] 0.05 was regarded as significant.

[3] = system: adenosine uptake by red blood cells; details: cited from earlier work
[4] = system: mean arterial blood pressure; details: dipyridamole 1 mg/kg, dogs; cited from earlier work
[5] = system: systemic arterial blood pressure and central hemodynamics; test: Controlled hypotension during anesthesia: central hemodynamics (dipyridamole-pretreated cerebral aneurysm surgery patients); details: in five of the patients
Procedure: One hour before the operation the patients were premedicated orally with diazepam (10-20 mg.) Atropine (0.5 mg) and droperidol (0.1 mg. per kg.) were given intravenously before induction of anesthesia. Induction was started with thiopental (5 mg. per kg) followed by phenoperidine (1-2 mg), a synthetic opiate with pharmacodymanics resembling fentanyl but with a longer duration of action and 1/10 of its analgesic potency.
Pancuronium bromide (0.1 mg per kg) was given to facilitate endotracheal intubation. Anesthesia was maintained by supplementary doses of phenoperidine and droperidol, as required. […] Phenoperidine was supplemented regularly to prevent the blood pressure from exceeding the preanesthetic level (approx. 1 mg/30-60 min). Controlled hyperventilation was employed with a humidified gas mixture of 60% N2 O in oxygen to maintain PaCO2 values at approximately 30 mmHg (±1.5/SEM). Mannitol (1-1.5 g. per kg) was given routinely at the start of the operation (e.g., 1-2 hours prior to the controlled hypotension). The patients were operated on in the horizontal supine position.
A 1.2-mm plastic cannula was introduced into the left radial artery to monitor systemic arterial blood pressure (MABP) and collect arterial blood. A balloon-tipped, flow-directed, quadruple lumen Swan-Ganz catheter (Model 93A-831-7.5 F, VIP) was inserted percutaneously via the left basilic vein, and its correct position in the pulmonary artery was determined by pressure tracings. The catheter was used for the monitoring of mean right atrial pressure (RAP), mean pulmonary artery pressure (PAP), and mean pulmonary capillary wedge pressure (PCWP) for the determination of cardiac output and collection of mixed venous blood and for the infusion of adenosine. Another plastic cannula was introduced percutaneously, in a retrograde direction, into the right jugular bulb for the collection of blood. The correct position was verified by x-ray.
The ECG was monitored with a standard chest (V5) lead. Heart rate was determined from the R-R interval. Blood pressures were measured by transducers placed at the midthoracic level. Cardiac output (QT) was determined in triplicate according to the thermodilution technique with a cardiac output computer (Edwards Lab, model 9510). Isotonic glucose, 10 ml at 1° C., was used as a thermal indicator. The ECG, heart rate, blood pressures, and thermodilution curves were recorded on a Grass® polygraph.
as §2, §3, §4
Systemic vascular resistance (SVR) was derived from the formula [formula] and pulmonary vascular resistance (PVR) from the formula [formula]
as §5

heart muscle = details: injection; cited from earlier work
[6] = Plasma level of dipyridamole (HPLC); assay type: in vivo, human; details: 0.3-0.4 mg/kg iv over 5-10 min; SEM; read-out: dipyridamole plasma level during hypotensive periods
Procedure: as §1, §3

cardiovascular system = details: cited from earlier work
myocardial blood flow = details: investigated in abdominal vascular surgery; words; cited from earlier work
[7] = during / after adenosine infusion, in words
[8] = read-out: Purine level in arterial plasma, after hypotension, 20-40 min, 20-40 min after hypotension
[9] = read-out: Purine level in arterial plasma, during hypotension, during i.v. adenosine infusion, dipyridamole-pretreated
[10] = CPB 10', adenosine infusion 0.1 mg/kg/min, n = 6
[11] = CPB 20', adenosine infusion 0.1 mg/kg/min, n = 6
[12] = CPB 40', adenosine infusion 0.1 mg/kg/min, n = 6
[13] = CPB 80', adenosine infusion 0.1 mg/kg/min, n = 6
[14] = human, venous plasma, iv, 0.1 mg/kg/min, Venous concentration

Compound: O=c1[nH]cnc2nc[nH]c12 [Hypoxanthine, hypoxanthine]
- change of adenosine metabolite levels ([1]; in vivo): increased during the infusion
- Arterial concentration ([2]; in vivo): 4.2 ± 0.9 µM

Compound: OC[C@H]1O[C@@H](n2cnc3c(O)ncnc32)[C@H](O)[C@@H]1O [Inosine, inosine]
- change of adenosine metabolite levels [1, 7]: remained slightly above basal levels 20-40 minutes after the infusion
- change of adenosine metabolite levels ([1]; during / after adenosine infusion, in words, listed as inosine): increased during the infusion
- concentration ([1]; read-out: Purine level in arterial plasma, after hypotension, 3-9 min, 3-9 min after hypotension): 0.69 ± 0.26 µM
- concentration [1, 8]: 0.29 ± 0.15 µM
- concentration [1, 9]: 3.01 ± 1.48 µM
- Arterial concentration ([2]; 20' post CPB, n = 6): 0.4 ± 0.1 µM
- Arterial concentration [2, 10]: 1.3 ± 0.7 µM
- Arterial concentration [2, 11]: 2.5 ± 1.0 µM
- Arterial concentration [2, 12]: 1.2 ± 0.3 µM
- Arterial concentration [2, 13]: 1.4 ± 0.4 µM
- concentration at 10 min [2, 14]: 900 ± 300 nM
- concentration at 40 min [2, 14]: 1600 ± 500 nM
- concentration at 80 min [2, 14]: 1600 ± 400 nM
- metabolite elevation during infusion ([2]; in vivo): consistently elevated
- concentration ([2]; 20' post CPB, n = 6): 400 ± 100 nM
- concentration [2, 11]: 2400 ± 1200 nM

Compound: O=c1[nH]c(=O)c2[nH]c(=O)[nH]c2[nH]1 [Uric Acid, uric acid]
- change of adenosine metabolite levels [1, 7]: unaffected
- concentration [1, 8]: 200 ± 28.8 µM
- concentration [1, 9]: 198 ± 22.7 µM
- Arterial concentration ([2]; 20' post CPB, n = 6): 260 ± 34 µM
- Arterial concentration [2, 10]: 260 ± 32 µM
- Arterial concentration [2, 11]: 269 ± 35 µM
- Arterial concentration [2, 12]: 250 ± 32 µM
- Arterial concentration [2, 13]: 249 ± 30 µM

Compound: O=c1[nH]c(=O)c2[nH]cnc2[nH]1 [Xanthine, xanthine]
- change of adenosine metabolite levels ([1]; in vivo): unaffected

Compound: OCCN(CCO)c1nc(N2CCCCC2)c2nc(N(CCO)CCO)nc(N3CCCCC3)c2n1 [dipyridamole]
- adenosine uptake inhibition [3]: inhibiting cellular uptake of adenosine
- adenosine uptake inhibition ([3]; listed as Dipryridamol): adenosine uptake inhibitor
- reduction of mean arterial blood pressure by dipyridamole [4]: 20%
- decrease of MABP by dipyridamole infusion [5]: approximately 10 mmHg
- redistribution of flow within heart muscle (heart muscle): augment the redistribution of flow within the heart muscle
- concentration [6]: 1200 ± 300 nM

Compound: NNc1nncc2ccccc12 [hydralazine]
- heart rate (cardiovascular system; in vivo): increase heart rate

Compound: FC(F)OC(Cl)C(F)(F)F (stereo not drawn) [isoflurane]
- coronary flow / coronary blood flow (myocardial blood flow): no beneficial effect; also recorded: may reduce coronary blood flow
- cardiac blood flow (cardiovascular system; in vivo): tendency to reduce cardiac blood flow

Compound: COc1cc2nc(N3CCN(C(=O)c4ccco4)CC3)nc(N)c2cc1OC [prazosin]
- heart rate (cardiovascular system; in vivo): increase heart rate
- onset and predictability of action (cardiovascular system; in vivo): slow onset and unpredictable action

Compound: CCCCC[C@H](O)/C=C/[C@@H]1[C@H]2C/C(=C/CCCC(=O)O)O[C@H]2C[C@H]1O [prostacyclin]
- systemic vasodilation and hypotension (cardiovascular system; coronary bypass surgery): severe systemic vasodilation and hypotension
